# From PubChem BioAssay AID328 (DTP/NCI, 2004)
# “And” between values parts separate entries of the source, which are not always exact repeats. Identical values can stand only once. Inconclusive results and toxic doses are left out.
# System: BDF1 mice, P388 leukemia ip, median survival T/C
# Test: NCI In Vivo Anticancer Drug Screen. Data for tumor model P388 Leukemia (intraperitoneal) in B6D2F1 (BDF1) mice
# Details: endpoint: median survival time, higher = longer survival
# Outline: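 Vehicle-dosed animals serve as the reference; survival of compound-dosed, tumour-implanted mice is divided by it.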
# [1] = dose: 50.0 mg/kg/injection, schedule: Q01DX009 (ip), vehicle: saline with Tween-80
# [2] = dose: 100.0 mg/kg/injection, schedule: Q01DX009 (ip), vehicle: saline with Tween-80
# [3] = dose: 100.0 mg/kg/injection, schedule: Q04DX003 (ip), vehicle: saline with Tween-80
# [4] = dose: 200.0 mg/kg/injection, schedule: Q04DX003 (ip), vehicle: saline with Tween-80
# [5] = dose: 400.0 mg/kg/injection, schedule: Q04DX003 (ip), vehicle: saline with Tween-80
# [6] = dose: 50.0 mg/kg/injection, schedule: Q01DX009 (ip), vehicle: Klucel (hydroxypropylcellulose) (HPC)
# [7] = dose: 100.0 mg/kg/injection, schedule: Q01DX009 (ip), vehicle: Klucel (hydroxypropylcellulose) (HPC)
# [8] = dose: 100.0 mg/kg/injection, schedule: Q04DX003 (ip), vehicle: Klucel (hydroxypropylcellulose) (HPC)
# [9] = dose: 200.0 mg/kg/injection, schedule: Q01DX009 (ip), vehicle: Klucel (hydroxypropylcellulose) (HPC)
# [10] = dose: 400.0 mg/kg/injection, schedule: Q01DX009 (ip), vehicle: Klucel (hydroxypropylcellulose) (HPC)
# [11] = dose: 400.0 mg/kg/injection, schedule: Q04DX003 (ip), vehicle: Klucel (hydroxypropylcellulose) (HPC)
# [12] = dose: 50.0 mg/kg/injection, schedule: Q01DX009 (ip), vehicle: saline
# [13] = dose: 200.0 mg/kg/injection, schedule: Q01DX009 (ip), vehicle: saline with Tween-80
smiles,measurement,setting,value
CSCS(=O)C[C@H](CO)NC(=O)/C=C/c1c(C)[nH]c(=O)[nH]c1=O (stereo partly specified),T/C,"dose: 0.15 mg/kg/injection, schedule: Q01DX010 (ip), vehicle: saline",109 % of control
same,T/C,"dose: 0.3 mg/kg/injection, schedule: Q01DX010 (ip), vehicle: saline",122 % of control
same,T/C,"dose: 0.6 mg/kg/injection, schedule: Q01DX010 (ip), vehicle: saline",172 % of control
same,T/C,"dose: 0.72 mg/kg/injection, schedule: Q04DX003 (ip), vehicle: saline",105 % of control
same,T/C,"dose: 0.78 mg/kg/injection, schedule: Q04DX002 (ip), vehicle: Klucel (hydroxypropylcellulose) (HPC)",100 % of control and 109 % of control
same,T/C,"dose: 0.86 mg/kg/injection, schedule: Q04DX003 (ip), vehicle: saline",108 % of control
same,T/C,"dose: 1.0 mg/kg/injection, schedule: Q04DX003 (ip), vehicle: saline",121 % of control
same,T/C,"dose: 1.2 mg/kg/injection, schedule: Q01DX010 (ip), vehicle: saline",100 % of control
same,T/C,"dose: 1.2 mg/kg/injection, schedule: Q04DX003 (ip), vehicle: saline",123 % of control
same,T/C,"dose: 1.56 mg/kg/injection, schedule: Q04DX002 (ip), vehicle: Klucel (hydroxypropylcellulose) (HPC)",109 % of control
same,T/C,"dose: 2.0 mg/kg/injection, schedule: Q04DX003 (ip), vehicle: saline",156 % of control
same,T/C,"dose: 2.4 mg/kg/injection, schedule: Q04DX003 (ip), vehicle: saline",97 % of control
same,T/C,"dose: 3.33 mg/kg/injection, schedule: Q04DX003 (ip), vehicle: saline",106 % of control
same,T/C,"dose: 6.25 mg/kg/injection, schedule: Q04DX002 (ip), vehicle: Klucel (hydroxypropylcellulose) (HPC)",118 % of control
same,T/C,"dose: 173.0 micrograms/kg/injection, schedule: Q01DX009 (ip), vehicle: saline",106 % of control
same,T/C,"dose: 288.0 micrograms/kg/injection, schedule: Q01DX009 (ip), vehicle: saline",110 % of control
same,T/C,"dose: 480.0 micrograms/kg/injection, schedule: Q01DX009 (ip), vehicle: saline",99 % of control
Clc1c(Cl)c(C[P+](CCP(c2ccccc2)c2ccccc2)(c2ccccc2)c2ccccc2)c(Cl)c(Cl)c1C[P+](CCP(c1ccccc1)c1ccccc1)(c1ccccc1)c1ccccc1,T/C,"dose: 3.13 mg/kg/injection, schedule: Q01DX009 (ip), vehicle: suspension in saline",114 % of control
Nc1c(C(=O)O)[nH]c(=O)[nH]c1=O,T/C,[1],113 % of control
same,T/C,[2],219 % of control
N#CC(CC(=O)OCc1ccccc1)NC(=O)OCc1ccccc1 (stereo unspecified),T/C,[3],95 % of control
same,T/C,[4],90 % of control
same,T/C,[5],100 % of control
Cc1ccc(CCO)c(C)c1,T/C,[6],95 % of control
same,T/C,[7],109 % of control
same,T/C,[8],100 % of control
same,T/C,[9],90 % of control
same,T/C,"dose: 200.0 mg/kg/injection, schedule: Q04DX003 (ip), vehicle: Klucel (hydroxypropylcellulose) (HPC)",90 % of control
same,T/C,[10],113 % of control
same,T/C,[11],100 % of control
C(=NCCc1ccccc1)c1ccccc1B1OB(c2ccccc2C=NCCc2ccccc2)OB(c2ccccc2C=NCCc2ccccc2)O1,T/C,[7],88 % of control
same,T/C,[8],100 % of control
same,T/C,[9],105 % of control
same,T/C,[10],88 % of control
same,T/C,[11],91 % of control
CC1=CC23C(COC(=O)C24CO4)C(C(=O)O)=CC3C1C (stereo unspecified),T/C,"dose: 0.31 mg/kg/injection, schedule: Q01DX009 (ip), vehicle: Klucel (hydroxypropylcellulose) (HPC)",105 % of control
same,T/C,"dose: 0.63 mg/kg/injection, schedule: Q01DX009 (ip), vehicle: Klucel (hydroxypropylcellulose) (HPC)",113 % of control
same,T/C,"dose: 1.25 mg/kg/injection, schedule: Q01DX009 (ip), vehicle: Klucel (hydroxypropylcellulose) (HPC)",102 % of control and 117 % of control
N=c1cc(-c2ccc(Cl)cc2)ss1,T/C,[12],117 % of control
same,T/C,"dose: 50.0 mg/kg/injection, schedule: Q04DX003 (ip), vehicle: saline",97 % of control
same,T/C,"dose: 100.0 mg/kg/injection, schedule: Q04DX003 (ip), vehicle: saline",105 % of control
same,T/C,"dose: 200.0 mg/kg/injection, schedule: Q04DX003 (ip), vehicle: saline",108 % of control
CCOc1nc(S(=O)(=O)CC)ncc1C,T/C,"dose: 25.0 mg/kg/injection, schedule: Q01DX009 (ip), vehicle: saline with Tween-80",92 % of control
same,T/C,"dose: 75.0 mg/kg/injection, schedule: Q01DX009 (ip), vehicle: saline with Tween-80",90 % of control
same,T/C,[3],105 % of control
same,T/C,"dose: 150.0 mg/kg/injection, schedule: Q01DX009 (ip), vehicle: saline with Tween-80",106 % of control
same,T/C,[4],96 % of control
same,T/C,[5],96 % of control
O=S(=O)(O)c1cc(S(=O)(=O)O)c2cc(N=Nc3ccc(N(CC4CO4)CC4CO4)cc3)ccc2c1 (stereo unspecified),T/C,"dose: 100.0 mg/kg/injection, schedule: Q01DX001 (ip), vehicle: saline",108 % of control
same,T/C,"dose: 200.0 mg/kg/injection, schedule: Q01DX001 (ip), vehicle: saline",102 % of control
same,T/C,"dose: 400.0 mg/kg/injection, schedule: Q01DX001 (ip), vehicle: saline",113 % of control
CO/N=C/c1ccc([N+](=O)[O-])s1,T/C,"dose: 12.0 mg/kg/injection, schedule: Q04DX003 (ip), vehicle: Klucel (hydroxypropylcellulose) (HPC)",118 % of control
same,T/C,"dose: 25.0 mg/kg/injection, schedule: Q01DX009 (ip), vehicle: Klucel (hydroxypropylcellulose) (HPC)",100 % of control
same,T/C,"dose: 25.0 mg/kg/injection, schedule: Q04DX003 (ip), vehicle: Klucel (hydroxypropylcellulose) (HPC)",113 % of control
same,T/C,[6],108 % of control
same,T/C,"dose: 50.0 mg/kg/injection, schedule: Q04DX003 (ip), vehicle: Klucel (hydroxypropylcellulose) (HPC)",104 % of control
same,T/C,[7],108 % of control
O=C(O)c1c(C(=O)O)c(C(=O)O)c(C(=O)O)c(C(=O)O)c1C(=O)O,T/C,"dose: 20.0 mg/kg/injection, schedule: Q01DX009 (ip), vehicle: saline",107 % of control
same,T/C,"dose: 40.0 mg/kg/injection, schedule: Q01DX009 (ip), vehicle: saline",117 % of control
same,T/C,"dose: 80.0 mg/kg/injection, schedule: Q01DX009 (ip), vehicle: saline",98 % of control
O=C1C2CCC(C2)[CH]1[Hg][Cl] (stereo unspecified),T/C,"dose: 1.56 mg/kg/injection, schedule: Q01DX009 (ip), vehicle: saline with Tween-80",102 % of control
same,T/C,"dose: 3.13 mg/kg/injection, schedule: Q01DX009 (ip), vehicle: saline with Tween-80",103 % of control
same,T/C,"dose: 6.25 mg/kg/injection, schedule: Q01DX009 (ip), vehicle: saline with Tween-80",118 % of control
Nc1nc2c(ncn2C2OC(CO)C(O)C2N)c(=O)[nH]1 (stereo unspecified),T/C,"dose: 3.12 mg/kg/injection, schedule: Q01DX009 (ip), vehicle: saline",111 % of control
same,T/C,"dose: 6.25 mg/kg/injection, schedule: Q01DX009 (ip), vehicle: saline",111 % of control and 124 % of control
same,T/C,"dose: 12.5 mg/kg/injection, schedule: Q01DX009 (ip), vehicle: saline",102 % of control and 117 % of control
same,T/C,"dose: 25.0 mg/kg/injection, schedule: Q01DX009 (ip), vehicle: saline",93 % of control and 111 % of control
same,T/C,[12],108 % of control
same,T/C,[3],109 % of control
same,T/C,[5],100 % of control
COc1cc([C@@H]2Oc3cc([C@@H]4Oc5cc(O)cc(O)c5C(=O)[C@H]4O)ccc3O[C@H]2CO)ccc1O,T/C,[3],107 % of control
same,T/C,[4],93 % of control
same,T/C,[5],97 % of control
O=C(O)C1CC2CCC1C2 (stereo unspecified),T/C,"dose: 100.0 mg/kg/injection, schedule: Q01DX001 (ip), vehicle: saline with Tween-80",100 % of control
same,T/C,"dose: 200.0 mg/kg/injection, schedule: Q01DX001 (ip), vehicle: saline with Tween-80",95 % of control
same,T/C,"dose: 400.0 mg/kg/injection, schedule: Q01DX001 (ip), vehicle: saline with Tween-80",100 % of control
COc1cc(OC)cc(C(=O)Br)c1,T/C,[2],91 % of control
same,T/C,[3],90 % of control
same,T/C,[13],91 % of control
same,T/C,[4],90 % of control
same,T/C,"dose: 400.0 mg/kg/injection, schedule: Q01DX009 (ip), vehicle: saline with Tween-80",91 % of control
same,T/C,[5],95 % of control
COc1cc(C=NCCN=Cc2cc(OC)c(OC)c(OC)c2)cc(OC)c1OC,T/C,"dose: 12.5 mg/kg/injection, schedule: Q04DX003 (ip), vehicle: saline with Tween-80",111 % of control
same,T/C,"dose: 25.0 mg/kg/injection, schedule: Q04DX003 (ip), vehicle: saline with Tween-80",107 % of control
same,T/C,"dose: 50.0 mg/kg/injection, schedule: Q04DX003 (ip), vehicle: saline with Tween-80",92 % of control
same,T/C,[4],95 % of control
CCN(CC)CCC1(C(N)=O)Cc2ccccc2N(CC)c2ccccc21 (stereo unspecified),T/C,[2],100 % of control
same,T/C,[13],100 % of control
CS(=O)(=O)Nc1ccccc1[N+](=O)[O-],T/C,[1],109 % of control
same,T/C,[2],104 % of control and 115 % of control
same,T/C,[13],100 % of control
